Patent publication US20250324966A1, “ADDITIVE FOR PRESERVING CELLS, TISSUE AND/OR FOOD” (Proteimax Bio Technology Israel LTD, priority 2021, published 2025)

What was measured:
[1] = test system: roses; experiment: Preservation of post-harvest flowers (roses), stems submerged in additive; parameters: species or system Rosa; settings: single dose 100 μM in water, room temperature (28° C.), 0, 3 and 6 days, vs H2O, FIG. 6
Method: (§1) In this context, as an experimental model to evaluate the preservation of flowers or inflorescences, two different types of flowers and their degradation/preservation profile were evaluated through incubation with water or with a solution of the preservation additive of the invention, keeping the flowers in room temperature for a few days.
(§2) The chosen flowers were the rose (Rose-red) and the Gerbera (Gerbera). Species of the genus Rosa are among the most ornamental flowers cultivated in the world. Species of the genus Gerbera are used as an experimental organism in studies of flowering and flower meristematic development, and because they contain natural coumarin derivatives, they are flowers of phytochemical interest and biological control.
(§3) In this embodiment, the peptide of SEQ ID NO: 15, which comprises the peptide of SEQ ID NO: 9 and the peptide of SEQ ID NO: 2, was used.
(§4) Four flowers were used in each container, the stems being kept submerged with at least 5 cm of the respective liquid during the test period. Aluminum foil was used around the container where the stems were submerged, to protect from the incidence of light. Photographic results of flowers kept in each condition (control and test) at 0, 3 and 6 days are shown. […]

[2] = test system: Gerberas; experiment: Preservation of post-harvest flowers (Gerberas), stems submerged in additive; parameters: species or system Gerbera; settings: single dose 100 μM in water, room temperature (28° C.), 0, 3 and 6 days, vs H2O, FIG. 6
Method: as §1, §2, §3, §4

[3] = test system: fresh strawberries; experiment: Preservation of strawberries against fungal contamination, single topical application; settings: 100 μM peptide in water
Method: (§5) The peptide of SEQ ID NO: 3, which comprises pep5 (SEQ ID NO: 1) and the cell-penetrating peptide (SEQ ID NO: 2), was prepared in a 100 μM solution in water, for direct topical use on the food to be preserved.
The peptide of SEQ ID NO: 15, which comprises the peptide of SEQ ID NO: 9 and the cell penetrating peptide of SEQ ID NO: 2, was prepared in a 100 μM solution in water, for use in the food or plant to be preserved.
The additive prepared according to example 1 was used in experiments for food preservation by single topical application.
The results of groups of 10 strawberries in each condition (test and control) at 0, 12, 24, 36, 48 and 60 h, respectively in A, B, C, D, E and F are shown.

[4] = test system: fresh strawberries; experiment: Preservation of strawberries against rot at 4° C.; settings: 100 μM peptide in water, kept at 4° C., 5 days; intense rot visible in untreated group; FIG. 3 D
Method: as §5
A new experiment with strawberries, now with the test and control groups being kept at a temperature of 4° C.
Representative results of strawberries in each condition (test and control) at 0 h, 24 h, 48 h and 5 days, respectively in A, B, C and D are shown.

[5] = test system: bean seeds; experiment: Modulation of the germination rate of bean seeds; parameters: species or system black bean; settings: single dose 100 μM in water, moist cotton, vs water
Method: To evaluate the effects of the additive of the invention in the modulation of cell division or multiplication in plants, particularly in the modulation of seed germination and/or plant development, an experiment aimed at observing the germination of bean seeds and the subsequent development of seedlings was conducted. Groups of groups of 14 black bean seeds were placed in moist cotton, each group in one condition: control, with application of water; and test, with application of the additive of the invention as described below. The state of the seeds was observed and documented at times 0, 3 and 4, and the pattern and profile of germination of the beans were analyzed.
The results of germination of groups of 14 seeds in moist cotton in each condition (control and test) in 0, 3 and 4 days, respectively in A, B and C are shown.

Row | Substance | preservation of flowers (roses), visual [1] | preservation of flowers (Gerberas), visual [2] | fruit preservation (visual results, percentage of spoiled fruits) ([3]; single application, 0-60 h, vs water control, FIGS. 1 and 2) | presence of a fungus with white hyphae on strawberries ([3]; single topical application, FIG. 1 D and E (36 and 48 h), visible in water control) | presence of intense rot in strawberries [4] | seed germination process (number of bean seeds germinated) ([5]; room temperature (28° C.), 0, 3 and 4 days, FIGS. 4 and 5) | metabolic state of the shoots or seedlings ([5]; room temperature (28° C.))
1 | SEQ ID NO: 15: peptide containing the peptide of SEQ ID NO: 9 and the cell-penetrating peptide of SEQ ID NO: 2 (WELVVLYGRKKRRQRRR) | effective preservation | effective preservation |  |  |  |  | 
2 | SEQ ID NO: 3: peptide containing the peptide of SEQ ID NO: 1 (WELVVLGKL) and the cell-penetrating peptide of SEQ ID NO: 2 (YGRKKRRQRRR) in the C-terminal region (WELVVLGKLYGRKKRRQRRR) |  |  | great potential for fruit preservation | not detectable | not detectable | delay in the seed germination process | substantial modulation
